Like-named read-outs stand apart in the source and are kept apart here.
What was measured:
thymidylate synthase = target: T1, thymidylate synthase (Mus musculus, UniProt P07607); test: Test (a): in vitro assay, inhibition of thymidylate synthase (partially purified from L1210 mouse leukaemia cells); format: biochemical
T1 construct: Thymidylate synthase may be obtained in partially purified form from L1210 mouse leukaemia cells; endogenous in cells; host or cells: L1210 mouse leukaemia cells
Excerpt: (a) An in vitro assay which determines the ability of a test compound to inhibit the enzyme thymidylate synthase.

[1] = system: leukaemia cell line L1210; test: Test (b): inhibition of growth of the leukaemia cell line L1210 in cell culture; format: cell-based; conditions: Mus musculus
Excerpt: (b) An assay which determines the ability of a test compound to inhibit the growth of the leukaemia cell line L1210 in cell culture. The test may be similar to that described in UK Patent Specification No. 2065653B and has been described by Jones et al. (J. Med. Chem., 1985, 28, 1468);

[2] = system: human breast, ovarian and liver cancer; conditions: in vivo; cited from earlier work
[3] = Cancer Treatment Reports, 1986, 70, 1335; cited from earlier work
[4] = thymidylate synthase partially purified from L1210 mouse leukaemia cells, read-out: IC50 in test (a)

T1 sequence (P07607 whole entry): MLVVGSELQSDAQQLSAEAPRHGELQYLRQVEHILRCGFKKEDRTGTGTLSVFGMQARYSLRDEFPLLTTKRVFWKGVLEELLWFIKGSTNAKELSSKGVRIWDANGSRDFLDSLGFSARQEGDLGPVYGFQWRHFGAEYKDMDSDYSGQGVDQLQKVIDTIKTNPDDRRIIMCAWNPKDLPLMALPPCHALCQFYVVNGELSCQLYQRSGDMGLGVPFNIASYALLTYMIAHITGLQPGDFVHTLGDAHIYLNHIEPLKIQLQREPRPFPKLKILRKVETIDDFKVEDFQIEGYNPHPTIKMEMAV

Row | IC50 (thymidylate synthase; [4]) [nM] | Compound | IC50 (thymidylate synthase) [nM] | IC50 [1] [nM] | activity against human breast, ovarian and liver cancer [2] | symptoms of toxicity in humans [3]
1 |  | Cc1nc2cc3c(cc2c(=O)[nH]1)C(N(C)c1ccc(C(=O)N[C@H](C(=O)O)c2ccc(CC(=O)O)cc2)c(F)c1)CC3 (mixture of isomers) [Example 8, (2S)-2-{o-fluoro-p-[N-methyl-N-((6RS)-2-methyl-4-oxo-3,4,7,8-tetrahydro-6H-cyclopenta[g]quinazolin-6-yl)amino]benzamido}-2-[p-(carboxymethyl)phenyl]acetic acid] | 7.6 |  |  | 
2 |  | Cc1nc2cc3c(cc2c(=O)[nH]1)C(N(C)c1ccc(C(=O)N[C@@H](CCc2nnn(CC(=O)O)n2)C(=O)O)c(F)c1)CC3 (mixture of isomers) [Example 10, (2S)-2-{o-Fluoro-p-[N-methyl-N-((6RS)-2-methyl-4-oxo-3,4,7,8-tetrahydro-6H-cyclopenta[g]quinazolin-6-yl)amino]benzamido}-4-(2-carboxymethyltetrazol-5-yl)-butyric acid] | 8.8 | 1200 |  | 
3 |  | Cc1nc2cc3c(cc2c(=O)[nH]1)C(N(C)c1ccc(C(=O)N[C@@H](CCc2nnnn2CC(=O)O)C(=O)O)c(F)c1)CC3 (mixture of isomers) [Example 11, (2S)-2-{o-Fluoro-p-[N-methyl-N-((6RS)-2-methyl-4-oxo-3,4,7,8-tetrahydro-6H-cyclopenta[g]quinazolin-6-yl)amino]benzamido}-4-(1-carboxymethyltetrazol-5-yl)-butyric acid] | 14.8 | 23000 |  | 
4 |  | Cc1nc2cc3c(cc2c(=O)[nH]1)[C@H](N(C)c1ccc(C(=O)N[C@@H](CCC(=O)N[C@@H](C(=O)O)c2ccc(CC(=O)O)cc2)C(=O)O)c(F)c1)CC3 (mixture of isomers) [Example 12, (2RS)-2-{N-{N-{o-Fluoro-p-[N-methyl-N-((6RS)-2-methyl-4-oxo-3,4,7,8-tetrahydro-6H-cyclopenta[g]quinazolin-6-yl)amino]benzoyl}-L-γ-glutamyl}amino}-2-[p-(carboxymethyl)phenyl]acetic acid] | 4 | 3900 |  | 
5 |  | C#CCN(c1ccc(C(=O)N[C@@H](CCC(=O)N(C)[C@@H](CCC(=O)O)C(=O)O)C(=O)O)cc1)C1CCc2cc3nc(C)[nH]c(=O)c3cc21 (mixture of isomers) [Example 13, N-{p-[N-((6RS)-2-Methyl-4-oxo-3,4,7,8-tetrahydro-6H-cyclopenta[g]quinazolin-6-yl)-N-(prop-2-ynyl)amino]benzoyl}-L-γ-glutamyl-N-methyl-L-glutamic acid] | 1.42 | 2300 |  | 
6 |  | C#CCN(c1ccc(C(=O)N[C@@H](CCc2nnnn2CCC(=O)O)C(=O)O)cc1)C1CCc2cc3nc(C)[nH]c(=O)c3cc21 (mixture of isomers) [Example 14, (2S)-2-{p-[N-((6RS)-2-methyl-4-oxo-3,4,7,8-tetrahydro-6H-cyclopenta[g]quinazolin-6-yl)-N-(prop-2-ynyl)amino]benzamido}-4-[1-(2-carboxyethyl)tetrazol-5-yl]butyric acid] | 1.84 | 630 |  | 
7 | 1.08 | C#CCN(c1ccc(C(=O)N[C@@H](CCC(=O)N[C@@H](CCc2nnnn2CC(=O)O)C(=O)O)C(=O)O)cc1)C1CCc2cc3nc(C)[nH]c(=O)c3cc21 (mixture of isomers) [Example 15, (2S)-2-{N-{N-{p-[N-((6RS)-2-Methyl-4-oxo-3,4,7,8-tetrahydro-6H-cyclopenta[g]quinazolin-6-yl)-N-(prop-2-ynyl)amino]benzoyl}-L-γ-glutamyl}amino}-4-(1-carboxymethyltetrazol-5-yl)butyric acid] |  | 7200 |  | 
8 | 1.58 | C#CCN(c1ccc(C(=O)N[C@@H](CCCS(=O)(=O)c2nnc[nH]2)C(=O)O)cc1)C1CCc2cc3nc(C)[nH]c(=O)c3cc21 (mixture of isomers) [Example 17, (2S)-2-{p-[N-((6RS)-2-methyl-4-oxo-3,4,7,8-tetrahydro-6H-cyclopenta[g]quinazolin-6-yl)-N-(prop-2-ynyl)amino]benzamido}-5-(1H-1,2,4-triazol-3-ylsulphonyl)pentanoic acid] |  | 250 |  | 
9 |  | C#CCN(c1ccc(C(=O)N[C@@H](CCC(=O)N[C@H](CCC(=O)O)c2nnn[nH]2)C(=O)O)cc1)C1CCc2cc3nc(C)[nH]c(=O)c3cc21 (mixture of isomers) [Example 18, (4R)-4-{N-{N-{p-[N-((6RS)-2-Methyl-4-oxo-3,4,7,8-tetrahydro-6H-cyclopenta[g]quinazolin-6-yl)-N-(prop-2-ynyl)amino]benzoyl}-L-γ-glutamyl}amino}-4-(tetrazol-5-yl)butyric acid] | 1.08 | 860 |  | 
10 | 1.84 | C#CCN(c1ccc(C(=O)N[C@@H](CCC(=O)N[C@H](C)C(=O)O)C(=O)O)cc1)C1CCc2cc3nc(C)nc(O)c3cc21 (mixture of isomers) [Example 19, N-{N-{p-[N-((6RS)-2-methyl-4-oxo-3,4,7,8-tetrahydro-6H-cyclopenta[g]quinazolin-6-yl)-N-(prop-2-ynyl)amino]benzoyl}-L-γ-glutamyl}-D-alanine] |  | 520 |  | 
11 |  | C#CCN(Cc1ccc2nc(N)[nH]c(=O)c2c1)c1ccc(C(=O)N[C@@H](CCC(=O)O)C(=O)O)cc1 [CB3717] |  |  | promising activity against human breast, ovarian and liver cancer | shows symptoms of toxicity in humans, particularly in relation to the liver and kidneys
12 |  | C#CCN(c1ccc(C(=O)N[C@@H](CCc2nnnn2CC(=O)N[C@H](C)C(=O)O)C(=O)O)cc1)C1CCc2cc3nc(C)nc(O)c3cc21 (some centres unmarked) [Example 16] | 3.4 | 10000 |  | 

Source: US5747499A, “Anti-cancer compounds” (British Technology Group Limited, priority 1994, dated 1998)
